The target in test [1] is Sodium-dependent dopamine transporter (Rattus norvegicus, UniProt P23977). The experiment in a line: Ability to inhibit reuptake of dopamine ([3H]DA) at dopamine transporter of rat striatum. It counts as tissue-based.
The target of test [2] is Norepinephrine transporter (Rattus norvegicus, UniProt Q9WTR4). The experiment in a line: Ability to inhibit reuptake of norepinephrine ([3H]NE) at norepinephrine transporter of rat parietal/occipital region.
Test [3] addresses Sodium-dependent serotonin transporter (Rattus norvegicus, UniProt P31652). Kind of test: Ability to inhibit reuptake of serotonin ([3H]5-HT) at serotonin transporter of rat midbrian.
A short description of test [4]: Inhibition of reuptake of norepinephrine compared to dopamine. It is filed as functional.
Test [5] in a line: Inhibition of reuptake of norepinephrine compared to serotonin. It counts as functional.
Test [6] can be described thus: Inhibition of reuptake of serotonin compared to dopamine. It counts as functional.
Test [7] in a line: Ratio of inhibitory activity against reuptake of norepinephrine ([3H]-NE) to that of serotonin ([3H]-5-HT)[…]. It is filed as functional.

23 compounds from ChEMBL document CHEMBL1136297, “Synthesis and pharmacological evaluation of (Z)-9-(heteroarylmethylene)-7-azatricyclo[4.3.1.0(3,7)]decanes: thiophene analogues as potent norepinephrine transporter inhibitors” (Bioorg Med Chem Lett, 2003) can be followed below.

Chain of Norepinephrine transporter (Q9WTR4 whole entry): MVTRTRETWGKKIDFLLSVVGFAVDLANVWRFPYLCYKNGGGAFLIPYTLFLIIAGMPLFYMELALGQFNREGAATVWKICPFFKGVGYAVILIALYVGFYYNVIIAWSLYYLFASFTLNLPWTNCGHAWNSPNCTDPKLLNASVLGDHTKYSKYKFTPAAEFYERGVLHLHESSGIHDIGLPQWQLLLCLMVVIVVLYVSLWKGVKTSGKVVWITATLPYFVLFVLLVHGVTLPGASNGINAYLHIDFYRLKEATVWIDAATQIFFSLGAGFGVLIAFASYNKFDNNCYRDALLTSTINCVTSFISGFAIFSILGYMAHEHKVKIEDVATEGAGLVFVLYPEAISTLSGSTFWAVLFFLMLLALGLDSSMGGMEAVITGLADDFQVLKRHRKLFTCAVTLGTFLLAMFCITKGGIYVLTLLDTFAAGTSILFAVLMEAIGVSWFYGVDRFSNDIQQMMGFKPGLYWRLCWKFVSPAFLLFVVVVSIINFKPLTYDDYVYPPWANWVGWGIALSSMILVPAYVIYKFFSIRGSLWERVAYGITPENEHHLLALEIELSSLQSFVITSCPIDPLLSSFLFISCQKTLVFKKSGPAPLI
Chain of Sodium-dependent serotonin transporter (P31652 whole entry): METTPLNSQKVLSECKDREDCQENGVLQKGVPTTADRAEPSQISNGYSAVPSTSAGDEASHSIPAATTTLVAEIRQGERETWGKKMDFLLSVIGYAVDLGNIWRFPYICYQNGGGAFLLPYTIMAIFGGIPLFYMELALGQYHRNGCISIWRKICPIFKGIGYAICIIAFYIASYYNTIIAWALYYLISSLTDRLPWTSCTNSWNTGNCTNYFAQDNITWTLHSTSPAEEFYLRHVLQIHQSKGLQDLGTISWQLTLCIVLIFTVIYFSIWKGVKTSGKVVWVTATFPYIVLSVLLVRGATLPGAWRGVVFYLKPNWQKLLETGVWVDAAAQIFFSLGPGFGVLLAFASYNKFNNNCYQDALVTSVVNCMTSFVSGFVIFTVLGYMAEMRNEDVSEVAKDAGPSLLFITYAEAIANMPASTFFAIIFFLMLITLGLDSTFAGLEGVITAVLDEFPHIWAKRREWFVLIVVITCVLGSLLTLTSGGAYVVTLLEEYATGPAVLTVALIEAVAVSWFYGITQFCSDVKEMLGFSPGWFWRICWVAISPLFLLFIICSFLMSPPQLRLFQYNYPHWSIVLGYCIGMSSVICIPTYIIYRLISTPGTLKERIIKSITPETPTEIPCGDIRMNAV
Chain of Sodium-dependent dopamine transporter (P23977 whole entry): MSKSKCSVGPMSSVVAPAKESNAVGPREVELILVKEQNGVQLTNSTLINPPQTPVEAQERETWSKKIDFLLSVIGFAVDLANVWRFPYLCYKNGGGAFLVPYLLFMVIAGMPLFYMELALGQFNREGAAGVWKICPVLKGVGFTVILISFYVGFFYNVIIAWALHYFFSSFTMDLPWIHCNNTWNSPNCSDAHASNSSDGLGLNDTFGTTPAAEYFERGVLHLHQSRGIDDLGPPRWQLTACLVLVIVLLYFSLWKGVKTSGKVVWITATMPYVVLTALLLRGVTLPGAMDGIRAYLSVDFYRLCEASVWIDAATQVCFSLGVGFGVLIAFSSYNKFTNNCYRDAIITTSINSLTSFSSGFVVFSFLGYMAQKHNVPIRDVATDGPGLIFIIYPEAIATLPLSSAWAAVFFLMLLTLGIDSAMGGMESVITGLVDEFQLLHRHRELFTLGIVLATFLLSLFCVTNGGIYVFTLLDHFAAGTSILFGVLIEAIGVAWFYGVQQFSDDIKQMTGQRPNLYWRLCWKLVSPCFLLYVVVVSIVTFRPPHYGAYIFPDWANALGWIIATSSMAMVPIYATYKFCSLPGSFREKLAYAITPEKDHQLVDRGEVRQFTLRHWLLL

As for `COC(=O)C1C2CC3CCC1N3C/C2=C\c1ccc(-c2ccc(SC)cc2)s1` (stereo unspecified), the Ki in test [1] is 1650 nM; in test [2], 273 nM; in test [3], 3320 nM. For the same compound, the Ratio in test [4] was 0.16; in test [5] it was 0.08; in test [6] it was 2.01.
Regarding `COC(=O)C1C2CC3CCC1N3C/C2=C\c1ccc(I)s1` (stereo unspecified), the values for the Ratio in test [4], in test [5] and in test [6] were 0.01, 0.17 and 0.08, respectively.
For the compound `COC(=O)C1C2CC3CCC1N3C/C2=C\c1ccc(Cl)s1` (stereo unspecified), the figures for the inhibitory constant (Ki) in test [1], in test [2] and in test [3] were 130 nM, 9.7 nM and 53 nM, respectively. Further, the Ratio in test [4] is 0.07; in test [5] it was 0.18; in test [6], 0.41.
For the compound `COC(=O)C1C2CC3CCC1N3C/C2=C\c1ccc(C)s1` (stereo unspecified), the Ratio in test [4] amounted to 0.01; in test [5], 0.03; in test [6] it was 0.44.
Turning to `COC(=O)C1C2CC3CCC1N3C/C2=C\c1ccc(-c2ccccc2)s1` (stereo unspecified), the Ki amounted to 179 nM in test [1], 13.5 nM in test [2] and 71 nM in test [3]. In addition, the figures for the Ratio in test [4], in test [5] and in test [6] were 0.08, 0.19 and 0.4, respectively.
On to `COC(=O)C1C2CC3CCC1N3C/C2=C\c1nccs1` (stereo unspecified), for which the inhibition constant (Ki) in test [1] is 5090 nM; in test [2] it was 855 nM; in test [3] it was > 10000 nM. In test [7], the Ratio is 0.17.
In the same order, the values of `COC(=O)C1C2CC3CCC1N3C/C2=C\c1ccc(Cl)nc1` (stereo unspecified) are > 10000 nM, 6510 nM, 810 nM and 8.03.
For the compound `COC(=O)C1C2CC3CCC1N3C/C2=C\c1ccc(Br)s1` (stereo unspecified), the Ki in test [1] was 147 nM; in test [2], 20 nM; in test [3], 36 nM. In addition, the figures for the Ratio in test [4], in test [5] and in test [6] were 0.14, 0.57 and 0.24, respectively.
In the case of `CCCCc1ccc(/C=C2\CN3C4CCC3C(C(=O)OC)C2C4)s1` (stereo unspecified), the results for the Ki in test [1], in test [2] and in test [3] were 4700 nM, 364 nM and 665 nM, respectively. Moreover, the results for the Ratio in test [4], in test [5] and in test [6] were 0.08, 0.55 and 0.14, respectively.
Turning to `CCc1ccc(/C=C2\CN3C4CCC3C(C(=O)OC)C2C4)s1` (stereo unspecified), the results for the Ki in test [1], in test [2] and in test [3] were > 10000 nM, 2130 nM and 346 nM, respectively. Further, in test [7], the Ratio was 6.16.
Regarding `CCCc1ccc(/C=C2\CN3C4CCC3C(C(=O)OC)C2C4)s1` (stereo unspecified), the Ki was found to be 1600 nM in test [1], 624 nM in test [2] and 269 nM in test [3]. Moreover, the Ratio was determined as 0.39 in test [4], 2.32 in test [5] and 0.17 in test [6].
Regarding `COC(=O)C1C2CC3CCC1N3C/C2=C\c1ccc(-c2ccc(OC)cc2)s1` (stereo unspecified), the Ki amounted to 371 nM in test [1], 10.3 nM in test [2] and 531 nM in test [3]. The Ratio in test [4] stood at 0.03; in test [5], 0.02; in test [6] it was 1.43.
Turning to `COC(=O)C1C2CC3CCC1N3C/C2=C\c1cnc(OC)nc1OC` (stereo unspecified), the results for the inhibitory constant (Ki) in test [1], in test [2] and in test [3] were > 10000 nM, 9450 nM and 5140 nM, respectively. The Ratio in test [7] worked out at 1.84.
As for `COC(=O)C1C2CC3CCC1N3C/C2=C\c1ccccn1` (stereo unspecified), the Ki in test [2] stood at 115 nM; in test [3], 3150 nM. In addition, the Ratio was 0.11 in test [4], 0.04 in test [5] and 2.97 in test [6].
For `COC(=O)C1C2CC3CCC1N3C/C2=C\c1cccs1` (stereo unspecified), the Ratio in test [4] was 0.1; in test [5] it was 0.01; in test [6] it was 7.63.
For `COC(=O)C1C2CC3CCC1N3C/C2=C\c1cccc(OC)n1` (stereo unspecified), the inhibitory constant (Ki) in test [1] came out at 14000 nM; in test [2], 308 nM; in test [3], 477 nM. The Ratio in test [4] stood at 0.02; in test [5], 0.65; in test [6] it was 0.03.
`COC(=O)C1C2CC3CCC1N3C/C2=C\c1ccc(OC)s1` (stereo unspecified): the inhibition constant Ki is > 10000 nM in test [1], 2250 nM in test [2] and 544 nM in test [3]. Moreover, the Ratio in test [7] was found to be 4.12.
Take `COC(=O)C1C2CC3CCC1N3C/C2=C\c1cc(C)c(Br)s1` (stereo unspecified): the Ki in test [1] was 1280 nM; in test [2] it was 36.8 nM; in test [3] it was 6.75 nM. For the same compound, the Ratio in test [4] worked out at 0.03; in test [5], 5.45; in test [6] it was 0.01.
For the compound `COC(=O)C1C2CC3CCC1N3C/C2=C\c1ccc(-c2cccs2)s1` (stereo unspecified), the values for the inhibition constant Ki in test [1], in test [2] and in test [3] were 298 nM, 98 nM and 48 nM, respectively. Besides, the Ratio worked out at 0.33 in test [4], 2.04 in test [5] and 0.16 in test [6].
Regarding `COC(=O)C1C2CC3CCC1N3C/C2=C\c1ccc(-c2ccc(Cl)s2)s1` (stereo unspecified), the results for the inhibition constant Ki in test [1], in test [2] and in test [3] were 242 nM, 58 nM and 93 nM, respectively. The Ratio in test [4] amounted to 0.24; in test [5], 0.62; in test [6] it was 0.38.
In the case of `COC(=O)C1C2CC3CCC1N3C/C2=C\c1ccsc1` (stereo unspecified), the Ki in test [1] stood at 485 nM; in test [2], 33 nM; in test [3], 3140 nM. The figures for the Ratio in test [4], in test [5] and in test [6] were 0.07, 0.01 and 6.47, respectively.
On to `COC(=O)C1C2CC3CCC1N3C/C2=C\c1cnccn1` (stereo unspecified), for which the Ki in test [1] was determined as 6570 nM; in test [2], 1930 nM; in test [3], 7140 nM. The Ratio in test [4] came out at 0.29; in test [5], 0.27; in test [6], 1.09.
Consider `COC(=O)C1C2CC3CCC1N3C/C2=C\c1cccnc1` (stereo unspecified), for which the inhibition constant Ki in test [1] was > 10000 nM; in test [2], 12700 nM; in test [3] it was 4580 nM. For the same compound, the Ratio in test [7] was 2.77.
